Data published in patent US7375124B2, “Use of α-phenylthiocarboxylic and α-phenyloxycarboxylic acids with serum-glucose-lowering and serum-lipid-lowering activity” (Sigma-Tau Industrie Farmaceutiche Riunite S.p.A., priority 2002, dated 2008).

How the values were obtained:
[1] = molecular target: T1, mPPARαLBD/Gal4DBD (Mus musculus, UniProt P23204); test: Transactivation assay mediated by mPPARαLBD/Gal4DBD in COS-7 cells (CAT reporter); type: cell-based
T1 construct: expressed in transfected cells; host or cells: COS-7 (monkey kidney fibroblasts)
T1 sequence (P23204 239-466 limits assumed): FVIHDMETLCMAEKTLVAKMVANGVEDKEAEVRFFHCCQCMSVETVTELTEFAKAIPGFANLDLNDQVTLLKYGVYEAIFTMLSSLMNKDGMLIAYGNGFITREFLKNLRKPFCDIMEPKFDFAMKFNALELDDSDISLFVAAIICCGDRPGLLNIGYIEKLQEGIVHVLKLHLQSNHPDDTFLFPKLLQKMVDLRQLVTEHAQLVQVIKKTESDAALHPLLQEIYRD
Excerpt: In this model a transactivation assay is used in which the expression vector mPPARαLBD/Gal4 DBD allows the synthesis by the transfected cell of a chimeric protein, in which the ligand binding domain (LBD) of PPARα is fused with the DNA binding domain (DBD) of the transcription factor GAL4 of yeast [Luckow B. et al., Nucleic Acids Res. 15, 5490 (1987)]. Simultaneously, a plasmid (pG5CAT) is transfected which contains 5 copies of the high-affinity binding site for GAL4 (also called UAS, upstream activating sequence), upstream of the viral promoter E1b fused with the CAT reporter gene [Moya-Camarena S. Y. et al., J. Lipid Res. 40 (8), 1426-33 (1999)]. This model eliminates interference by possible endogenous receptors.
This is due to the fact that the activation of E1b and the production of CAT will occur exclusively thanks to the interaction of GAL4 DBD with its own response element (UAS). Since the transcription factor GAL4 is not expressed in […] cells, transactivation of the reporter gene can take place only when, as a result of the interaction of a ligand with the LBD of PPARα, the chimeric protein PPARα/GAL4 recognises the UAS sequence on the plasmid pG5CAT. Together with the expression vector and the reporter vector the cells were also transfected with the plasmid pCH110 which provides the internal control for the efficiency of transfection and the normalisation of the results.
A monkey kidney fibroblast cell line (COS-7) was used [Elbrecht A. et al., J. Biol. Chem. 274 (12), 7913-22 (1999)]. The cells were co-transfected with the reporter vector, the expression plasmid coding for the fusion protein Gal4 DBD/PPARαLBD and the control vector pCH110. The cells were exposed to increasing concentrations of the study compounds and CAT activity was evaluated. Untreated cells were used as controls.
Monkey kidney fibroblasts (COS-7) were cultured according to the usual cell culture techniques, at 37° C. in a 5% v/v carbon dioxide atmosphere using as the growth medium DMEM (Dulbecco's modified Eagle's medium) modified with 3.7 g/l of sodium bicarbonate, 4 mM L-glutamine, 4.5 g/l of glucose, 1 mM sodium pyruvate and 10% v/v of foetal bovine serum, in the presence of streptomycin 100 μg/ml and penicillin 100 U/ml final.
The cells were co-transfected using the transfection reagent FuGENE6 (Roche), consisting of a defined mixture of lipids capable of complexing the DNA and of transporting it into the cells. Twenty-four hours prior to transfection the cells were plated at a density of 1.2×10^5 cells/well in 12-well plates and maintained at 37° C. in a 5% v/v CO2 atmosphere. […] Briefly, the transfection mixture containing 0.8 μg of the expression vector, 1.6 μg of the reporter vector, 0.8 μg of the control vector and 9 μl of the FuGENE6 reagent per well was added directly to the cells in the presence of culture medium devoid of serum. After 5 hours, the transfection medium was replaced by 1 ml of culture medium complete with serum and antibiotics in the presence or absence of the molecules to be tested at 3 different concentrations (2, 20 and 100 μM). Wy-14,643 (2 μM), a known ligand of PPARα, was used as the positive reference compound.
After 48 hours' incubation at 37° C. in a 5% v/v CO2 atmosphere, the cells were washed twice with 1 ml of phosphate buffer (PBS) and removed mechanically from the wells in TEN buffer (Tris[hydroxymethyl]aminomethane 10 mM pH 8, ethylenediamine-tetraacetic acid 1 mM pH 8, sodium chloride 0.1 M). After centrifuging for 3 minutes at 1000 rpm, the cells were resuspended in 65 μl of lysis buffer (Tris-HCl 0.25 M, pH 8) and then lysed thanks to three rapid freeze-thaw cycles. The insoluble cellular materials (debris) were removed by centrifuging at 15,000 rpm for 15 minutes at 4° C., and the supernatant was recovered and used for the CAT and β-galactosidase activity assays. […]

[2] = system: C57BL/KsJ db/db mouse; test: Antidiabetic and serum-lipid-lowering activity in the db/db mouse (Experiments I and II); conditions: for Variation % (AUC glucose at OGTT) vs control / AUC glucose at OGTT: OGTT glucose 3 g/kg; for Glucose (plasma): postabsorption (fasting 9 a.m. to 4.30 p.m.); for Glucose: blood; for Final b.w. / Initial b.w.: postabsorption condition; for Variation % (initial b.w.) vs control / Initial b.w.: initial body weight
[3] = Experiment I, after 25 days' treatment
[4] = Experiment I, after 25 days' treatment, postabsorption, 7.5 hours after last treatment
[5] = Experiment I, after 25 days' treatment, postabsorption, 7.5 hours after last treatment, mean ± S.E.
[6] = Experiment II, after 11 days' treatment, fasting 18 hours, 5 hours after last treatment, mean ± S.E.
[7] = Experiment II, after 12 days' treatment
[8] = Experiment II, after 12 days' treatment, postabsorption, 7.5 hours after last treatment, mean ± S.E.

In the case of `COC(=O)C(C)(C)Sc1cccc(OCCc2ccc3ccccc3c2)c1` [Example 10, methyl 2-[3-[2-(2-naphthyl)ethoxy]phenylthio]isobutyrato], the “Activation of reporter gene CAT as a percentage of the reference compound (WY-14,643 2 μM = 100%)” value ([1]; 2 μM) is reported as 98.1%, the “Activation of reporter gene CAT as a percentage of the reference compound (WY-14,643 2 μM = 100%)” value ([1]; 20 μM) is reported as 360% and the “Activation of reporter gene CAT as a percentage of the reference compound (WY-14,643 2 μM = 100%)” value ([1]; 100 μM) is reported as 462.7%.
With `COC(=O)C(C)(C)Sc1cccc(OCCc2ccc(Cl)cc2)c1` [Example 1, methyl 2-[3-[2-(4-chlorophenyl)ethoxy]phenylthio]isobutyrate] the “Activation of reporter gene CAT as a percentage of the reference compound (WY-14,643 2 μM = 100%)” value ([1]; 2 μM) was 44.9%, the “Activation of reporter gene CAT as a percentage of the reference compound (WY-14,643 2 μM = 100%)” value ([1]; 20 μM) was 129.9% and the “Activation of reporter gene CAT as a percentage of the reference compound (WY-14,643 2 μM = 100%)” value ([1]; 100 μM) was 232.1%. For the same molecule, the “Variation % (glucose) vs control” value ([2]; Experiment I, after 12 days' treatment, feeding state, approx. 15 hours after last treatment) was −38%, the “Variation % (glucose) vs control” value ([2]; Experiment I, after 12 days' treatment, postabsorption, 8 hours after last treatment) was −48% and the “Variation % (AUC glucose at OGTT) vs control” value ([2]; Experiment I, after 18 days' treatment) was −52%. For the same molecule, the “AUC glucose at OGTT” value ([2]; Experiment I, after 18 days' treatment, fasting 18 hours, 5 hours after last treatment, mean ± S.E.) was 24527 ± 889 a.u, the “Variation % (glucose) vs control” value ([2]; Experiment I, after 18 days' treatment, fasting 18 hours, 6 hours after last treatment) was −58% and the “Variation % (HDL-cholesterol) vs control” value [2, 3] was “+20%”. The “Variation % (final b.w.) vs control” value [2, 3] was “+27%”, the “Variation % (triglycerides) vs control” value [2, 3] was −53% and the “Glucose (plasma)” value ([2]; Experiment I, after 25 days' treatment, 7.5 hours after last treatment, mean ± S.E.) was 206 ± 8Δ mg/dl. The “Variation % (fructosamine) vs control” value [2, 4] was −49%, the “Variation % (plasma glucose) vs control” value [2, 4] was −55% and the “Fructosamine (plasma)” value [2, 5] was 0.41 ± 0.04 mM. For the same molecule, the “HDL-choles. (plasma)” value [2, 5] was 98.0 ± 3.5[…] mg/dl, the “Triglycerides (plasma)” value [2, 5] was 45.3 ± 2.3 mg/dL and the Glucose ([2]; Experiment I, after 12 days' treatment, postabsorption (fasting 9 a.m. to 5 p.m.), 8 hours after last treatment, mean ± S.E.) was 216 ± 16 mg/dL. The Glucose ([2]; Experiment I, after 18 days' treatment, fasting 18 hours, 6 hours after last treatment, mean ± S.E.) was 144 ± 3Δ mg/dl, the Glucose ([2]; Experiment I, db/db mice, oral twice daily, after 12 days' treatment, feeding state, approx. 15 hours after last treatment, mean ± S.E.) was 303 ± 16 mg/dL and the Final b.w. ([2]; Experiment I, final body weight after 25 days' treatment, mean ± S.E.) was 35.9 ± 0.6 g. The “Variation % (initial b.w.) vs control” value ([2]; Experiment I) was “+2%”, the Initial b.w. ([2]; Experiment I, mean ± S.E.) was 32.3 ± 0.3 g and the “Variation % (glucose) vs control” value ([2]; Experiment II, after 9 days' treatment, postabsorption, 8 hours after last treatment) was −36%. For the same molecule, the “Variation % (AUC glucose at OGTT) vs control” value ([2]; Experiment II, after 11 days' treatment) was −40%, the “AUC glucose at OGTT” value [2, 6] was 25929 ± 1299 a.u and the “Variation % (glucose) vs control” value ([2]; Experiment II, after 11 days' treatment, fasting 18 hours, 5 hours after last treatment) was −36%. The “Variation % (HDL-cholesterol) vs control” value [2, 7] was “+43%”, the “Variation % (final b.w.) vs control” value [2, 7] was “+7%” and the “Variation % (triglycerides) vs control” value [2, 7] was −48%. The “Glucose (plasma)” value ([2]; Experiment II, after 12 days' treatment, 7.5 hours after last treatment, mean ± S.E.) was 356 ± 30 mg/dL, the “Variation % (plasma glucose) vs control” value ([2]; Experiment II, after 12 days' treatment, postabsorption, 7.5 hours after last treatment) was −38% and the “HDL-choles. (plasma)” value [2, 8] was 123.7 ± 1.9 mg/dL. The “Triglycerides (plasma)” value [2, 8] was 45.1 ± 1.4 mg/dL, the Glucose ([2]; Experiment II, after 9 days' treatment, postabsorption (fasting 9 a.m. to 5 p.m.), 8 hours after last treatment, mean ± S.E.) was 223 ± 20Δ mg/dl and the Glucose [2, 6] was 158 ± 7 mg/dL. For the same molecule, the Final b.w. ([2]; Experiment II, final body weight after 12 days' treatment, mean ± S.E.) was 40.3 ± 0.8[…] g, the “Variation % (initial b.w.) vs control” value ([2]; Experiment II) was −1% and the Initial b.w. ([2]; Experiment II, mean ± S.E.) was 38.6 ± 0.4 g.
